The values below come from PMC7613998, “Development of selective inhibitors of phosphatidylinositol 3-kinase C2α” (Nature Chemical Biology, 2022).

The experiment concerns the target T1, PI3KC2α (Homo sapiens, UniProt O00443).
T1 construct: gene PIK3C2A; human PI3KC2α^ΔN (amino acids 376–1686)
Nature of the experiment: ADP-Glo lipid kinase assay with PI as substrate. Type of experiment: biochemical.

Structures are written as SMILES.

T1 sequence (O00443 376-1686): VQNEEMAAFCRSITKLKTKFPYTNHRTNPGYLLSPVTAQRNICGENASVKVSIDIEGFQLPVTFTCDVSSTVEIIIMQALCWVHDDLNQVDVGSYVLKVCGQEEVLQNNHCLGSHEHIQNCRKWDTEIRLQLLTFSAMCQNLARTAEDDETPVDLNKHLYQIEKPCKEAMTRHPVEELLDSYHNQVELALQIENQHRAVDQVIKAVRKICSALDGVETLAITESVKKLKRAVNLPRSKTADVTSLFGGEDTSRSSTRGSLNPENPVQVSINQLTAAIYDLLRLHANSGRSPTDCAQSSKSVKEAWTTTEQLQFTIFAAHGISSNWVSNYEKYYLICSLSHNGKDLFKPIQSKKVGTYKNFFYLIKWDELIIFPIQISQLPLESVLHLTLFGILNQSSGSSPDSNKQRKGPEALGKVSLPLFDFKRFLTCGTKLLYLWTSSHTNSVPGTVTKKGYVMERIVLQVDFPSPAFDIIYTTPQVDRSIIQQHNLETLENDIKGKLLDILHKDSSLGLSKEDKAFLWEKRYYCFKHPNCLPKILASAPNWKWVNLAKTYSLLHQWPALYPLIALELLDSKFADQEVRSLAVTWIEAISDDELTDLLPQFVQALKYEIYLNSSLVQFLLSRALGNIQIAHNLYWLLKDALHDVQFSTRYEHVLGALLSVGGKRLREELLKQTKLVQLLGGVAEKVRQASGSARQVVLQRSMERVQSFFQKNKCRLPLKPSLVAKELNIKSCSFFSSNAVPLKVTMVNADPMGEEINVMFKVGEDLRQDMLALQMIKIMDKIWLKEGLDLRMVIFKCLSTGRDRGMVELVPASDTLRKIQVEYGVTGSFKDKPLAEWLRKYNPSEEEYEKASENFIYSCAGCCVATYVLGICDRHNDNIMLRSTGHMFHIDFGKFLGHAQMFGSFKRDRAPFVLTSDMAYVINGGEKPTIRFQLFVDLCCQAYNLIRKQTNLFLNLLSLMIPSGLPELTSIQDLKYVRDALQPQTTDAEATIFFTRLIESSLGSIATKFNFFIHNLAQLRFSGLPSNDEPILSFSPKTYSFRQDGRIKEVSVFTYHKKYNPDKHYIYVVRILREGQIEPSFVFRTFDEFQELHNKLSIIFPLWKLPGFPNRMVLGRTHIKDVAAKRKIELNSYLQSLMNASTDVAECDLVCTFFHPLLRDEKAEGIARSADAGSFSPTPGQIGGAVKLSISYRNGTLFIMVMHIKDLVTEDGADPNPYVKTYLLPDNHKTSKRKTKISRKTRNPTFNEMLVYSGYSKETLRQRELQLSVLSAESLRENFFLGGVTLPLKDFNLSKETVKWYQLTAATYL

As for `CC(C)CCn1c(SCC(=O)Nc2ccccc2C(F)(F)F)nc2nccnc2c1=O` [compound 4], it took 2600 nM to reach half-maximal inhibition (IC50).
